# From ChEMBL document CHEMBL1201862, “PubChem BioAssay data set” (2004)
#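 Dose response: 5 concentrations. Exposure: 48 h. Format: 96-well plates. Endpoint: linear interpolation; highest concentration if not reached. At the GI50, growth is halved.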 Activity calls are given as the source filed them. Rule as the data show it: active = GI50 up to about 1.1 µM and inactive = higher.
# Legend:
# Assay in all cases: NCI-60 cell line screen, 48 h
# NCI-H23 = tested on: NCI-H23
# OVCAR-3 = tested on: OVCAR-3
# SF-295 = tested on: SF-295
# HCC 2998 = tested on: HCC 2998
# HOP-62 = tested on: HOP-62
# NCI-H226 = tested on: NCI-H226
# IGROV-1 = tested on: IGROV-1
# RPMI-8226 = tested on: RPMI-8226
# SK-MEL-5 = tested on: SK-MEL-5
# 786-0 = tested on: 786-0
# SF-268 = tested on: SF-268
# OVCAR-8 = tested on: OVCAR-8
# U-251 = tested on: U-251
# M14 = tested on: M14
# NCI-H522 = tested on: NCI-H522
# UACC-62 = tested on: UACC-62
# T47D = tested on: T47D
# MDA-MB-435 = tested on: MDA-MB-435
# NCI/ADR-RES = tested on: NCI/ADR-RES
SMILES,GI50 (NCI-H23),GI50 (OVCAR-3),GI50 (SF-295),GI50 (HCC 2998),GI50 (HOP-62),GI50 (NCI-H226),GI50 (IGROV-1),GI50 (RPMI-8226),GI50 (SK-MEL-5),GI50 (786-0),GI50 (SF-268),GI50 (OVCAR-8),GI50 (U-251),GI50 (M14),GI50 (NCI-H522),GI50 (UACC-62),GI50 (T47D),GI50 (MDA-MB-435),GI50 (NCI/ADR-RES)
CCn1cc(C(=O)O)c(=O)c2cc(F)c(N3CCNCC3)nc21 [ENOXACIN],31.1 µM (inactive),> 100 µM (inactive),> 100 µM (inactive),> 100 µM (inactive),> 100 µM (inactive),> 100 µM (inactive),> 100 µM (inactive),> 100 µM (inactive),87.5 µM (inactive),> 100 µM (inactive),> 100 µM (inactive),> 100 µM (inactive),66.7 µM (inactive),> 100 µM (inactive),24.4 µM (inactive),> 100 µM (inactive),,,
CCN(CC)C(=O)c1c(N2CCOCC2)cc(N(CC)CC)oc1=O,> 100 µM (inactive),> 100 µM (inactive),> 100 µM (inactive),> 100 µM (inactive),> 100 µM (inactive),> 100 µM (inactive),> 100 µM (inactive),> 100 µM (inactive),,> 100 µM (inactive),> 100 µM (inactive),> 100 µM (inactive),> 100 µM (inactive),> 100 µM (inactive),> 100 µM (inactive),> 100 µM (inactive),,,
CC(C)C(Sc1nc(-c2ccccc2)c(-c2ccccc2)[nH]1)C(=O)NNC(=S)Nc1ccccc1 (stereo not given),14.8 µM (inactive),13.1 µM (inactive),16 µM (inactive),0.0421 µM (active),24.1 µM (inactive),16.7 µM (inactive),18.4 µM (inactive),10.9 µM (inactive),12.8 µM (inactive),18.2 µM (inactive),24.5 µM (inactive),21.5 µM (inactive),15 µM (inactive),16.9 µM (inactive),8.67 µM (inactive),0.857 µM (active),,,
COC(=O)[C@@H]1CN(C(=O)Cc2ccccc2)C(=O)N1,> 100 µM (inactive),> 100 µM (inactive),> 100 µM (inactive),,> 100 µM (inactive),> 100 µM (inactive),> 100 µM (inactive),> 100 µM (inactive),> 100 µM (inactive),> 100 µM (inactive),> 100 µM (inactive),> 100 µM (inactive),> 100 µM (inactive),> 100 µM (inactive),> 100 µM (inactive),> 100 µM (inactive),> 100 µM (inactive),> 100 µM (inactive),> 100 µM (inactive)
CO/C(=N\N=C\c1ccc(Cl)c(Cl)c1)c1ccncc1,> 10 µM (inactive),> 10 µM (inactive),> 10 µM (inactive),> 10 µM (inactive),> 10 µM (inactive),> 10 µM (inactive),> 10 µM (inactive),> 10 µM (inactive),> 10 µM (inactive),> 10 µM (inactive),> 10 µM (inactive),> 10 µM (inactive),> 10 µM (inactive),> 10 µM (inactive),,,> 10 µM (inactive),,> 10 µM (inactive)
COc1cc2c(c(OC(C)=O)c1OC(C)=O)-c1ccc(SC)c(=O)cc1C(NC(C)=O)CC2 (stereo not given),1.92 µM (inactive),0.5 µM (active),2.23 µM (inactive),2.51 µM (inactive),7.59 µM (inactive),6.87 µM (inactive),4.45 µM (inactive),1.36 µM (inactive),0.631 µM (active),3.87 µM (inactive),1.38 µM (inactive),3.66 µM (inactive),2.49 µM (inactive),2.96 µM (inactive),0.379 µM (active),1.12 µM (inactive),,,
CC1=C(C(=O)Nc2cc(=O)n(C)c(=O)n2C)C(c2ccc([N+](=O)[O-])cc2)C(C(=O)Nc2cc(=O)n(C)c(=O)n2C)=C(C)N1,> 100 µM (inactive),> 100 µM (inactive),> 100 µM (inactive),94.8 µM (inactive),18.1 µM (inactive),49.3 µM (inactive),> 100 µM (inactive),59.6 µM (inactive),,84.9 µM (inactive),> 100 µM (inactive),68.1 µM (inactive),> 100 µM (inactive),> 100 µM (inactive),37.1 µM (inactive),26.5 µM (inactive),,,
COc1ccc(N2C(=O)c3c(c4[nH]c5ccc(OC)cc5c4c4ccc(C(C)(C)C)cc34)C2=O)cc1,> 100 µM (inactive),> 100 µM (inactive),> 100 µM (inactive),> 100 µM (inactive),> 100 µM (inactive),> 100 µM (inactive),> 100 µM (inactive),> 100 µM (inactive),> 100 µM (inactive),> 100 µM (inactive),> 100 µM (inactive),92.7 µM (inactive),> 100 µM (inactive),> 100 µM (inactive),> 100 µM (inactive),,,,
CC1(C)CCC[C@@]2(C)C1C[C@H](O)[C@@]1(C)O[C@@](C)([C@H](O)CO)CCC21 (stereo not given in full),33.7 µM (inactive),29.8 µM (inactive),35.6 µM (inactive),60.8 µM (inactive),62.7 µM (inactive),28.7 µM (inactive),28.9 µM (inactive),20 µM (inactive),20.9 µM (inactive),44 µM (inactive),30.4 µM (inactive),39.3 µM (inactive),37.2 µM (inactive),34.6 µM (inactive),25.9 µM (inactive),28.6 µM (inactive),,,
[O-][S+]1c2ccccc2SCSc2ccccc21,> 100 µM (inactive),> 100 µM (inactive),> 100 µM (inactive),> 100 µM (inactive),> 100 µM (inactive),,,18.2 µM (inactive),76.6 µM (inactive),> 100 µM (inactive),> 100 µM (inactive),> 100 µM (inactive),> 100 µM (inactive),> 100 µM (inactive),> 100 µM (inactive),> 100 µM (inactive),97.7 µM (inactive),,> 100 µM (inactive)
Clc1ccc(C[P+]2(c3ccccc3)CCCCC2)cc1.[O-][Cl+3]([O-])([O-])[O-],85.5 µM (inactive),44.7 µM (inactive),> 100 µM (inactive),43.6 µM (inactive),> 100 µM (inactive),> 100 µM (inactive),> 100 µM (inactive),32.2 µM (inactive),20.3 µM (inactive),> 100 µM (inactive),,> 100 µM (inactive),45.5 µM (inactive),53.8 µM (inactive),28.8 µM (inactive),37.2 µM (inactive),,,
[O-][N+]1=[N+]([O-])[C@@H](c2ccccc2)[C@H]1c1ccccc1,16.5 µM (inactive),15.2 µM (inactive),19.9 µM (inactive),,18.7 µM (inactive),21.3 µM (inactive),12.6 µM (inactive),4.48 µM (inactive),16.7 µM (inactive),13.5 µM (inactive),24.9 µM (inactive),16.8 µM (inactive),18.6 µM (inactive),15.8 µM (inactive),11.5 µM (inactive),17.5 µM (inactive),,18.7 µM (inactive),17.5 µM (inactive)
CN(CC(=O)O)c1ncc2c(n1)-c1ccccc1OC2,> 100 µM (inactive),,> 100 µM (inactive),,,,> 100 µM (inactive),> 100 µM (inactive),> 100 µM (inactive),> 100 µM (inactive),> 100 µM (inactive),> 100 µM (inactive),> 100 µM (inactive),> 100 µM (inactive),> 100 µM (inactive),> 100 µM (inactive),,> 100 µM (inactive),> 100 µM (inactive)
Cc1cc(S(=O)(=O)O)c(NC(=O)C(=O)C2C=CCS2(=O)=O)cc1Cl (stereo not given),> 100 µM (inactive),> 100 µM (inactive),> 100 µM (inactive),> 100 µM (inactive),> 100 µM (inactive),> 100 µM (inactive),> 100 µM (inactive),> 100 µM (inactive),> 100 µM (inactive),> 100 µM (inactive),> 100 µM (inactive),> 100 µM (inactive),> 100 µM (inactive),> 100 µM (inactive),> 100 µM (inactive),> 100 µM (inactive),,,
CC(=O)NC1=C(C)C(=O)c2c(nc3n2CCC3O)C1=O (stereo not given),35.4 µM (inactive),10.8 µM (inactive),> 100 µM (inactive),54 µM (inactive),> 100 µM (inactive),27.4 µM (inactive),> 54.2 µM (inactive),18.2 µM (inactive),51.9 µM (inactive),43.4 µM (inactive),34.8 µM (inactive),20.4 µM (inactive),33.1 µM (inactive),> 100 µM (inactive),23.7 µM (inactive),20.1 µM (inactive),,,
O=c1[nH]nc(N/N=C\c2ccc(Cl)cc2)c2ccccc12,23 µM (inactive),16 µM (inactive),18.5 µM (inactive),,,27.6 µM (inactive),15.4 µM (inactive),25.7 µM (inactive),16.1 µM (inactive),14.8 µM (inactive),23.2 µM (inactive),24.3 µM (inactive),20.5 µM (inactive),18.7 µM (inactive),16.6 µM (inactive),20.5 µM (inactive),25.7 µM (inactive),17.8 µM (inactive),19.6 µM (inactive)
COc1ccc(CNc2nc(NCc3ccc(OC)cc3)nc(NC3CCCC3)n2)cc1,2.99 µM (inactive),2.76 µM (inactive),2.18 µM (inactive),,3.07 µM (inactive),5.07 µM (inactive),13.4 µM (inactive),2.24 µM (inactive),3.76 µM (inactive),4.05 µM (inactive),7.18 µM (inactive),4.06 µM (inactive),4.5 µM (inactive),2.91 µM (inactive),2.99 µM (inactive),,,1.48 µM (inactive),2.7 µM (inactive)
